{"source": "patent US6613538B2", "about": "“Detection of HLA-G” (priority 1999, dated 2003)", "format_in_all_cases": "cell-based, human", "key": {"[1]": {"test_system": "cytotrophoblasts (placenta cell culture)", "test": "HLA-G protein by ELISA after progesterone treatment", "conditions": "progesterone 100 ng and 1000 ng/ml, 24 hours", "description": "(§1) Methods. Purified cytotrophoblasts were prepared from first trimester placental tissue by standard techniques. JEG-3 choriocarcinoma cells were cultured in RPMI-1640 medium containing 10% FCS for three days. The cells were then treated with various doses of progesterone for 24 hours. Cell lysates and conditioned media were prepared for ELISA and total RNA was extracted for PCR. The ELISA was conducted according to the invention, using the 3C/G4 and 2C/C8 anti-HLA-G monoclonal antibodies. HLA-G protein, purified by immunoaffinity columns from first trimester placental tissue, was used as standard. The sensitivity of the ELISA was 20 ng/ml and assay variation was less than 10%. Quantitative RT-PCR was performed by using specific primers for HLA-G. Results were assessed for statistical significance using one-way analysis of variance."}, "[2]": {"test_system": "JEG-3 choriocarcinoma cells", "test": "HLA-G protein by ELISA after progesterone treatment", "conditions": "progesterone doses from 10 ng/ml, 24 hours", "description": "as §1"}, "cytotrophoblast cells": {"test_system": "cytotrophoblast cells", "test": "HLA-G mRNA by quantitative RT-PCR after progesterone treatment", "description": "as §1"}, "[3]": {"test_system": "JEG-3 choriocarcinoma cells", "test": "HLA-G mRNA by quantitative RT-PCR after progesterone treatment", "description": "as §1"}}}
{"molecule": "CC(=O)[C@H]1CC[C@H]2[C@@H]3CCC4=CC(=O)CC[C@]4(C)[C@H]3CC[C@]12C", "note": "[progesterone]", "values": [{"measurement": "HLA-G protein in placenta cell culture", "setting": "[1]", "value": "significantly increased"}, {"measurement": "HLA-G concentration in JEG-3 cell lysate", "setting": "[2]", "value": "significant increase"}, {"measurement": "HLA-G concentration in JEG-3 conditioned medium", "setting": "[2]", "value": "significant increase"}, {"measurement": "HLA-G mRNA levels in cytotrophoblast cells", "setting": "cytotrophoblast cells", "value": "increase of HLA-G mRNA levels"}, {"measurement": "HLA-G mRNA levels in JEG-3 cells", "setting": "[3]; after progesterone treatment, RT-PCR", "value": "increase of HLA-G mRNA levels"}, {"measurement": "HLA-G mRNA levels at 1000 ng/ml versus 10 and 100 ng/ml", "setting": "[3]; progesterone 1000 ng/ml, cell type not specified in the sentence (JEG-3 and cytotrophoblast cells tested)", "value": "significantly higher HLA-G mRNA levels"}]}
